{
  "source": "patent US20100311661A1",
  "about": "“USE OF COMPOUNDS DERIVED FROM CYCLOHEXIMIDE FOR THE TREATMENT OR PREVENTION OF, IN PARTICULAR, ISCHAEMIAS AND CARDIOPATHIES” (Max Planck Gesellschaft Zur Forderung Der Wissenschaften …, priority 2007, published 2010)",
  "key": {"[1]": {"tested_on": "Hearts of 9-week-old male rats", "parameters": "species or system rats (Sprague-Dawley)"}, "adult cardiomyocytes": {"tested_on": "adult cardiomyocytes", "experiment": "Adult cardiomyocytes under hypoxia and subsequent reoxygenation; apoptosis by Guava ViaCount assay", "conditions": "18 hours hypoxia, 24 hours normoxic; DM-CHX greater than 1 μM; p<0.05"}, "brain lesions": {"tested_on": "brain lesions", "conditions": "photothrombotic in vivo model in rats; cited from earlier work"}, "retinal ganglion cells": {"tested_on": "retinal ganglion cells", "conditions": "in vivo; cited from earlier work"}, "liver cells of rats": {"tested_on": "liver cells of rats", "conditions": "cited from earlier work"}},
  "data": [
    {"smiles": "C[C@@H]1C[C@@H]([C@H](O)CC2CC(=O)N(CC(=O)N(C)C)C(=O)C2)C(=O)[C@@H](C)C1", "note": "[DM-CHX]", "values": [
      {"measurement": "size of the infarct, qualitative (TTC colouring, visual)", "setting": "[1]", "value": "serious difference in colouring"},
      {"measurement": "influence on apoptosis", "setting": "adult cardiomyocytes", "value": "statistically significant influence"}
    ]},
    {"smiles": "CC1CC(C)C(=O)C(C(O)CC2CC(=O)NC(=O)C2)C1", "note": "(centres unmarked) [CHX, 4-[2-(3,5-dimethyl-2-oxocyclohexyl)-2-hydroxy-ethyl]-2,6-piperidindione]", "values": [
      {"measurement": "brain lesions triggered by radiation", "setting": "brain lesions", "value": "reduces brain lesions"},
      {"measurement": "cell death caused by axotomy", "setting": "retinal ganglion cells", "value": "inhibits cell death caused by axotomy"},
      {"measurement": "protection against cell death", "setting": "liver cells of rats", "value": "protective property of CHX against cell death has also been demonstrated"}
    ]}
  ]
}
